# Experimental data from ChEMBL document CHEMBL1201862, “PubChem BioAssay data set” (2004).
# Calls of active or inactive are those of the source.
# Assays:
# [1] = target: Cytochrome P450 2D6 (Homo sapiens, UniProt P10635);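 further: CYP2D6 member of a cytochrome P450 panel assay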
# [2] = target: Cytochrome P450 2C9 (Homo sapiens, UniProt P11712)
# [3] = target: T1, Cytochrome P450 1A2 (Homo sapiens, UniProt P05177);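 further: PubChem cytochrome P450 panel assay, CYP1A2 panel member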
# T1 sequence (P05177 whole entry): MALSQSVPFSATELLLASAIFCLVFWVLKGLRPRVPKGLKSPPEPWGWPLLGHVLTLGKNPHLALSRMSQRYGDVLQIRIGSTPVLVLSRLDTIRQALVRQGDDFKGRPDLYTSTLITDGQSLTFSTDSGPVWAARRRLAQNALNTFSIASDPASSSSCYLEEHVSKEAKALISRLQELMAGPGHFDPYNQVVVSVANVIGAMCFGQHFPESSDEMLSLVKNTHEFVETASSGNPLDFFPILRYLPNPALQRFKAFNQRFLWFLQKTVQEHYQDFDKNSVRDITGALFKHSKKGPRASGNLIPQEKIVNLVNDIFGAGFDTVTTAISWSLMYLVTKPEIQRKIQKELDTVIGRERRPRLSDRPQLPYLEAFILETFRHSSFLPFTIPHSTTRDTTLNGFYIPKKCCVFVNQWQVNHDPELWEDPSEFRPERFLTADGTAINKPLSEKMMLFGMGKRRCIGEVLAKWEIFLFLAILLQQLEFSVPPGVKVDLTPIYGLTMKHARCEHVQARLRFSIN
# [4] = target: Cytochrome P450 2C19 (Homo sapiens, UniProt P33261); test: Cytochrome panel assay with activity outcomes. Panel member name: p450-cyp2c19 Compounds with AC50 equal or less than 10 uM are considered active; type: functional
# [5] = inhibitors of firefly luciferase expression or activity, dose response, H4 neuroglioma cells, luminescence (AID 1990); type: functional, cell-based
# [6] = Luminescence Cell-Based Dose Response HTS to Identify Inhibitors of 5'UTR Stem-Loop Driven Prion Protein mRNA Translation in H4 Neuroglioblastoma Cells. [Related pubchem assays: 1827 (Project Summary), 1813 (Primary HTS)]; type: functional
# [7] = inhibitors of SNCA 5'UTR-driven reporter translation, confirmation, H4 neuroglioma cells, luminescence (AID 1988); type: functional, cell-based
# [8] = target: Cytochrome P450 3A4 (Homo sapiens, UniProt P08684);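 further: CYP3A4 tested as one member of a cytochrome P450 panel screen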
# [9] = target: T2, Corticotropin-releasing factor receptor 2/Corticotropin-releasing factor-binding protein (Homo sapiens, UniProt P24387+Q13324); test: activators of CRF receptor 2 with binding protein – uHTS hits, confirmation (AID 602473); type: functional; conditions: read-out: EC50_Mean
# T2 sequence (Q13324 whole entry): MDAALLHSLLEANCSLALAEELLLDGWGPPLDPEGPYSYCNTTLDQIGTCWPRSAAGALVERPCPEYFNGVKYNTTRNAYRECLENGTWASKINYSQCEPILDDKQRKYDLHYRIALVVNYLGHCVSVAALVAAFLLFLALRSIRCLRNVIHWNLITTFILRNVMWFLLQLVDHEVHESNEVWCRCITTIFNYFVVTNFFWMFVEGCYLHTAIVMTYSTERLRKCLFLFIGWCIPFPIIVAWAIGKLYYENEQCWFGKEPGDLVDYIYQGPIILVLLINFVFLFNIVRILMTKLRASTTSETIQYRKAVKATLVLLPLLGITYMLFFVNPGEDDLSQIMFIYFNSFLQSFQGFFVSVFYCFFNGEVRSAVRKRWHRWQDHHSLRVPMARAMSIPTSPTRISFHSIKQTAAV
# T2 sequence (P24387 whole entry): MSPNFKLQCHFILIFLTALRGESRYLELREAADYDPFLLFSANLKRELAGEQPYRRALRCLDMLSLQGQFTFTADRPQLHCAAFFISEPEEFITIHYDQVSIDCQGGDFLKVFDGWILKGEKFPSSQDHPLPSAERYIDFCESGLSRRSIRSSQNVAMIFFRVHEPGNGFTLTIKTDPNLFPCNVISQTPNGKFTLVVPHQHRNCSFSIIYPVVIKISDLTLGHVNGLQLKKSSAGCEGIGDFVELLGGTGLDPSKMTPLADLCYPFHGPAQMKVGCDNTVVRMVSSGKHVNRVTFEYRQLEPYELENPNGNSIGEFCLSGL
# Chain of Cytochrome P450 2D6 (P10635 whole entry): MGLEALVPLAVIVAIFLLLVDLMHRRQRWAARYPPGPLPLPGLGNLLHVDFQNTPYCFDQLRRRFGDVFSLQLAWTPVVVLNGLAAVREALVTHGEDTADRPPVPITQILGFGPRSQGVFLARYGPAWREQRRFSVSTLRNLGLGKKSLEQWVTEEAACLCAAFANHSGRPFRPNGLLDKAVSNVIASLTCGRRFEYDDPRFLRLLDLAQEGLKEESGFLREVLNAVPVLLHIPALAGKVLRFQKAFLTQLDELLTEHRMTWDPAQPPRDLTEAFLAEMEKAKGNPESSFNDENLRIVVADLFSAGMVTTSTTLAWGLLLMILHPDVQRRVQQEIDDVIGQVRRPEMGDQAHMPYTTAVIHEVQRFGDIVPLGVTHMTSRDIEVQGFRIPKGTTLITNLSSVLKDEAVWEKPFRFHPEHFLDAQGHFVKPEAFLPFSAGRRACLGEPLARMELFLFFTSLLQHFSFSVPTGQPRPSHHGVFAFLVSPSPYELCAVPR
# Chain of Cytochrome P450 3A4 (P08684 whole entry): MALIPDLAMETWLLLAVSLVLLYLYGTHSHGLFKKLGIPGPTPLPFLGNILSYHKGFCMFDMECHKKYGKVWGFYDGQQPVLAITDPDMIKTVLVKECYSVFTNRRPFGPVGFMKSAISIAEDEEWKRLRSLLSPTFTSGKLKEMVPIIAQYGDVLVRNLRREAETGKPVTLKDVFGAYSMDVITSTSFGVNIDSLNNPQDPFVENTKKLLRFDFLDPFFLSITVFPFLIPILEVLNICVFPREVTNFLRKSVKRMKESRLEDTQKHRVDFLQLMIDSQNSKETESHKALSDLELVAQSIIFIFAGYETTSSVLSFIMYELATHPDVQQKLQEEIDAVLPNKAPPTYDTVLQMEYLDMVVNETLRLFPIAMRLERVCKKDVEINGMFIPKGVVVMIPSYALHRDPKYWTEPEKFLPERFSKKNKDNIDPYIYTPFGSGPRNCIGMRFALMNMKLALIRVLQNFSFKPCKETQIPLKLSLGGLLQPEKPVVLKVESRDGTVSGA
# Chain of Cytochrome P450 2C9 (P11712 whole entry): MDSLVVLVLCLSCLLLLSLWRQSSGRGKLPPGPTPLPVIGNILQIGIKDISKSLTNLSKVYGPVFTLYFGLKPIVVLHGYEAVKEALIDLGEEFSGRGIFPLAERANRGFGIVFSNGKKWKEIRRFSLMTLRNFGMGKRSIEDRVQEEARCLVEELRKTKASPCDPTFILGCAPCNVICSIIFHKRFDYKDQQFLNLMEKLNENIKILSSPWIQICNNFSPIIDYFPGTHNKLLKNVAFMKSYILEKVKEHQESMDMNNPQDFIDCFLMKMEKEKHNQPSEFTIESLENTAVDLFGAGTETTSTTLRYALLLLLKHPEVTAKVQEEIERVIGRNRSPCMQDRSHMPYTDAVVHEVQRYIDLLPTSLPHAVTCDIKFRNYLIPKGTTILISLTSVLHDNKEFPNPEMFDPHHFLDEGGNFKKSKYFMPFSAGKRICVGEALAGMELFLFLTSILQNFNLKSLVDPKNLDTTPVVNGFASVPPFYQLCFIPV
# Chain of Cytochrome P450 2C19 (P33261 whole entry): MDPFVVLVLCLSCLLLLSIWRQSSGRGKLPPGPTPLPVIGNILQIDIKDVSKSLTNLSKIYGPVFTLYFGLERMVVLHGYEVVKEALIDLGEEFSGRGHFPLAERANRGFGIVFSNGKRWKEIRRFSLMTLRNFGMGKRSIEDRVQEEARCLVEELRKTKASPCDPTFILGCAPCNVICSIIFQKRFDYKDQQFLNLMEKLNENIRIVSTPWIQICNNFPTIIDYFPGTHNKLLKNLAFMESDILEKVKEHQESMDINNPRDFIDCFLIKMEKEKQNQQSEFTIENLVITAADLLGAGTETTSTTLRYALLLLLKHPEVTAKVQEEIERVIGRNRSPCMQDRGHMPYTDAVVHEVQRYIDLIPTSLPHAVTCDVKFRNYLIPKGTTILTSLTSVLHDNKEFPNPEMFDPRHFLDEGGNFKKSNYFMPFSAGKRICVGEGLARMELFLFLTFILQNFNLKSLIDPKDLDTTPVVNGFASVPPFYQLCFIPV
smiles,measurement,setting,value
Cc1cc(C)c(/C=C2/C(=O)Nc3ccccc32)[nH]1,AC50,[1],0.398 µM (inconclusive)
same,AC50,[2],2.51 µM (inconclusive)
COCCn1c(=O)c(-c2cc(F)cc(F)c2)nc2cnc(N(C)C)nc21,AC50,[3],5.01 µM (inconclusive)
CS(=O)(=O)Nc1cccc(-c2nc(N3CCNCC3)c3ccccc3n2)c1,AC50,[3],20 µM (inconclusive)
c1ccc(Nc2ncnc3ccc(-c4ccoc4)cc23)cc1,AC50,[1],20 µM (inconclusive)
Cn1cc(-c2nc3cncnc3n(Cc3ccc(F)cc3)c2=O)c2ccccc21,AC50,[3],1.26 µM (inconclusive)
NCOC(=O)Cc1ccc(Br)cc1,AC50,[3],0.2 µM (active)
COc1ccc2[nH]cc(CCNc3ncncc3-c3c(C)noc3C)c2c1,AC50,[1],20 µM (inconclusive)
same,AC50,[2],1.26 µM (inconclusive)
CC(=O)OC[C@H]1O[C@@H](O/N=C2/[C@H]3O[C@@H]3[C@@H](O)[C@H]3[C@H]2CCn2c(=O)n(-c4ccccc4)c(=O)n23)[C@H](OC(C)=O)[C@@H](OC(C)=O)[C@@H]1OC(C)=O,AC50,[4],inconclusive
same,AC50,[1],3.16 µM (inconclusive)
COc1ccc([N+](=O)[O-])cc1COc1ccc2c(-c3ccccc3)cc(=O)oc2c1,AC50,[4]; read-out: AC50,3.55 µM (inconclusive)
O=C1C(c2ccccn2)=[N+]([O-])c2ccccc21,AC50,[3],0.158 µM (active)
COc1ccc(NC(=O)c2cc(S(=O)(=O)N3CCCCC3)c[nH]2)cc1Cl,EC50,[5],23.7 µM (active)
same,EC50,[6],18.4 µM (active)
same,EC50,[7],> 120 µM (not active)
COC(=O)c1c(C)oc2ccc(N(C(=O)c3ccncc3)S(=O)(=O)c3ccc(C)cc3)cc12,EC50,[5],> 120 µM (not active)
same,EC50,[6],10.9 µM (active)
same,EC50,[7],8.07 µM (active)
CN(C)CCNC(=O)C(=O)NCC1OCCCN1S(=O)(=O)c1cccs1 (stereo not given),EC50,[5],> 120 µM (not active)
same,EC50,[6],> 120 µM (not active)
same,EC50,[7],> 120 µM (not active)
CC(=O)Nc1c(C(=O)N2CCOCC2)cnn1-c1ccc(C)c(C)c1,AC50,[4],inconclusive
same,AC50,[8],3.98 µM (inconclusive)
Cc1ccccc1NC(=O)NC1(C(=O)N2CCOCC2)CCCCC1,EC50,[5],> 120 µM (not active)
same,EC50,[6],> 120 µM (not active)
same,EC50,[7],> 120 µM (not active)
COc1ccc(CNC(=O)[C@H]2C[C@@H]2[C@H](NP(=O)(c2ccccc2)c2ccccc2)c2ccccc2)cc1OC,AC50,[2],25.1 µM (inconclusive)
c1ccc(-c2ccc(N3CC4(CCNCC4)C3)cc2)cc1,AC50,[1],25.1 µM (inconclusive)
same,AC50,[8],25.1 µM (inconclusive)
CC12CCC(C(=O)Nc3cccc4ccccc34)(C1Br)C2(C)C (stereo not given),AC50,[1],20 µM (inconclusive)
same,AC50,[2],2.51 µM (inconclusive)
CCCCCC(=O)Nc1cc2nc(O)cc(COC)c2cc1C,AC50,[2],10 µM (inconclusive)
Cc1ccc(NC(=O)CN2CCC(NC(=O)c3cccc(F)c3)CC2)cc1C,EC50,[5],> 120 µM (not active)
same,EC50,[6],21.6 µM (active)
same,EC50,[7],> 120 µM (not active)
CCc1ccc(NC(=O)C(CC)c2ccccc2)cc1 (stereo not given),EC50,[9],10.4 µM (active)
O=C(Nc1cc(C(F)(F)F)ccc1Cl)C(Sc1cccc[n+]1[O-])c1ccccc1 (stereo not given),EC50,[9],> 53 µM (inactive)
Cc1ccc(SCN2CCCCC2)cc1.O=C(Cl)c1ccc([N+](=O)[O-])cc1,AC50,[4]; read-out: AC50,2.51 µM (inconclusive)
CCCCC#Cc1nc(N)c2ncn([C@@H]3O[C@@H](C(=O)NCC)[C@H](O)[C@@H]3O)c2n1,AC50,[4]; read-out: AC50,39.8 µM (inconclusive)
same,AC50,[8],15.8 µM (inconclusive)
same,AC50,[2],25.1 µM (inconclusive)
Oc1c(CN2CCOCC2)ccc(CN2CCOCC2)c1O,AC50,[2],7.94 µM (inconclusive)
CCOc1ccc(C(C)NC(=S)NCc2ccc(Cl)cc2)cc1 (stereo not given),EC50,[9],14.6 µM (active)
CCC/C=C(\CCC)C(NS(=O)(=O)c1ccccc1)c1ccc(C(F)(F)F)cc1 (stereo not given),AC50,[3],12.6 µM (inconclusive)
